According to ChEMBL document CHEMBL2321716, “Exploring a new frontier in cancer treatment: targeting the ubiquitin and ubiquitin-like activating enzymes” (J Med Chem, 2013):
≈ marks a conversion by molar mass, not a printed value.

Legend:
[1] = Inhibition of mouse recombinant His6-tagged UAE-catalyzed UAE-Ub thioester intermediate formation expressed in insect cells by SDS-PAGE analysis
[2] = Inhibition of N-terminal GST-tagged human UAE-catalyzed [32P]-AMP:[a-32P]-ATP exchange expressed in HI5 insect cells by TLC analysis
[3] = Inhibition of N-terminal GST-tagged human UAE-catalyzed UAE-Ub thioester intermediate formation expressed in HI5 insect cells after 30 mins by immunoblotting analysis
T47D = test: Cytotoxicity against human T47D cells assessed as induction of cell death after 72 hrs by Alamar blue assay; format: functional; details: read-out: LD50 (the source's name)
[4] = Cytotoxicity against human MDA468 cells assessed as induction of cell death after 72 hrs by Alamar blue assay; format: functional; details: MDA-MB-468, 72 h, read-out: LD50 (the source's name)
DU-145 = test: Cytotoxicity against human DU145 cells assessed as induction of cell death after 72 hrs by Alamar blue assay; format: functional; details: DU-145, 72 h, read-out: LD50 (the source's name)
HeLa = test: Cytotoxicity against human HeLa cells assessed as induction of cell death after 72 hrs by Alamar blue assay; format: functional; details: read-out: LD50 (the source's name)
[5] = Cytotoxicity against human OVACR3 cells assessed as induction of cell death after 72 hrs by Alamar blue assay; format: functional; details: OVACR3, 72 h, read-out: LD50 (the source's name)
[6] = Cytotoxicity against human KMS11 cells assessed as induction of cell death after 72 hrs by Alamar blue assay; format: functional; details: KMS-11, 72 h, read-out: LD50 (the source's name)
LP-1 = test: Cytotoxicity against human LP-1 cells assessed as induction of cell death after 72 hrs by Alamar blue assay; format: functional; details: LP-1, 72 h, read-out: LD50 (the source's name)
PPC-1 = test: Cytotoxicity against human PPC1 cells assessed as induction of cell death after 72 hrs by Alamar blue assay; format: functional; details: PPC-1, 72 h, read-out: LD50 (the source's name)
[7] = Cytotoxicity against human U226 cells assessed as induction of cell death after 72 hrs by Alamar blue assay; format: functional; details: U226, 72 h, read-out: LD50 (the source's name)
[8] = Cytotoxicity against human Leukemia cells assessed as induction of cell death after 72 hrs by Alamar blue assay; format: functional; details: read-out: LD50 (the source's name)
HT-29 = test: Cytotoxicity against human HT-29 cells assessed as induction of cell death after 72 hrs by Alamar blue assay; format: functional; details: HT-29, 72 h, read-out: LD50 (the source's name)
[9] = Inhibition of GST-tagged human recombinant UAE-catalyzed UAE-Ub thioester intermediate formation after 30 mins by fluorescence assay
FaDu = test: Cytotoxicity against human FADU cells assessed as induction of cell death after 72 hrs by Alamar blue assay; format: functional; details: read-out: LD50 (the source's name)
[10] = Inhibition of human UAE-catalyzed E1-E2 transthiolation reaction expressed in Sf9 insect cells after 90 mins by TR-FRET assay
[11] = target: T1, Ubiquitin-like modifier-activating enzyme 7 (Homo sapiens, UniProt P41226); test: Inhibition of UBA7 (unknown origin) in presence of ATP
T1 sequence (P41226 whole entry): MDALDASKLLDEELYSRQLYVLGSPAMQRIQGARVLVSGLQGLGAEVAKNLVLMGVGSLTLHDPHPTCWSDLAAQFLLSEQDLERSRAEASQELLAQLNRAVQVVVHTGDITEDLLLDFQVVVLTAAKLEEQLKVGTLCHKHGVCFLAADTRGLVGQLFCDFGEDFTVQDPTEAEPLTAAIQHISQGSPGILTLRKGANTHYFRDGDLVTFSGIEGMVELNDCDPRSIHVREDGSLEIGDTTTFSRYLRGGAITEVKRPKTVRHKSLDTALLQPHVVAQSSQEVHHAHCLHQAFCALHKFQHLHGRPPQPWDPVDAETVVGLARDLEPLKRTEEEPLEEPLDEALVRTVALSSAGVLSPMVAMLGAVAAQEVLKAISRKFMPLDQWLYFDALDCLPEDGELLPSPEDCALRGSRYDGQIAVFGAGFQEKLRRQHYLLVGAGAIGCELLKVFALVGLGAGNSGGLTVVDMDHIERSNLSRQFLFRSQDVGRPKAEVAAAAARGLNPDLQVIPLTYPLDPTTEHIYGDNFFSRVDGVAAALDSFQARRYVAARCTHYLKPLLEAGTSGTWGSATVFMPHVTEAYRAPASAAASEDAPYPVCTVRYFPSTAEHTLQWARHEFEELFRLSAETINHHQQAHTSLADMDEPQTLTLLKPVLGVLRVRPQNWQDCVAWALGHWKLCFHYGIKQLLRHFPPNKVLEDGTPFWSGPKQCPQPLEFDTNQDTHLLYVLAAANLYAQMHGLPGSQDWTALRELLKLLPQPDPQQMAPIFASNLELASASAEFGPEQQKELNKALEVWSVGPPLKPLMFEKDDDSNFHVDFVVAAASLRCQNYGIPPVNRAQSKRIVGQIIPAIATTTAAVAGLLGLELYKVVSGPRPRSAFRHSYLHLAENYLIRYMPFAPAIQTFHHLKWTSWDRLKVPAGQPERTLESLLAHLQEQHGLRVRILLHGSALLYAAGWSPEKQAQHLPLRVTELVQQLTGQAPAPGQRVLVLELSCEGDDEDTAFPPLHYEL

[12] = target: T2, Ubiquitin-like modifier-activating enzyme 6 (Homo sapiens, UniProt A0AVT1); test: Inhibition of UBA6 (unknown origin) in presence of ATP
T2 sequence (A0AVT1 whole entry): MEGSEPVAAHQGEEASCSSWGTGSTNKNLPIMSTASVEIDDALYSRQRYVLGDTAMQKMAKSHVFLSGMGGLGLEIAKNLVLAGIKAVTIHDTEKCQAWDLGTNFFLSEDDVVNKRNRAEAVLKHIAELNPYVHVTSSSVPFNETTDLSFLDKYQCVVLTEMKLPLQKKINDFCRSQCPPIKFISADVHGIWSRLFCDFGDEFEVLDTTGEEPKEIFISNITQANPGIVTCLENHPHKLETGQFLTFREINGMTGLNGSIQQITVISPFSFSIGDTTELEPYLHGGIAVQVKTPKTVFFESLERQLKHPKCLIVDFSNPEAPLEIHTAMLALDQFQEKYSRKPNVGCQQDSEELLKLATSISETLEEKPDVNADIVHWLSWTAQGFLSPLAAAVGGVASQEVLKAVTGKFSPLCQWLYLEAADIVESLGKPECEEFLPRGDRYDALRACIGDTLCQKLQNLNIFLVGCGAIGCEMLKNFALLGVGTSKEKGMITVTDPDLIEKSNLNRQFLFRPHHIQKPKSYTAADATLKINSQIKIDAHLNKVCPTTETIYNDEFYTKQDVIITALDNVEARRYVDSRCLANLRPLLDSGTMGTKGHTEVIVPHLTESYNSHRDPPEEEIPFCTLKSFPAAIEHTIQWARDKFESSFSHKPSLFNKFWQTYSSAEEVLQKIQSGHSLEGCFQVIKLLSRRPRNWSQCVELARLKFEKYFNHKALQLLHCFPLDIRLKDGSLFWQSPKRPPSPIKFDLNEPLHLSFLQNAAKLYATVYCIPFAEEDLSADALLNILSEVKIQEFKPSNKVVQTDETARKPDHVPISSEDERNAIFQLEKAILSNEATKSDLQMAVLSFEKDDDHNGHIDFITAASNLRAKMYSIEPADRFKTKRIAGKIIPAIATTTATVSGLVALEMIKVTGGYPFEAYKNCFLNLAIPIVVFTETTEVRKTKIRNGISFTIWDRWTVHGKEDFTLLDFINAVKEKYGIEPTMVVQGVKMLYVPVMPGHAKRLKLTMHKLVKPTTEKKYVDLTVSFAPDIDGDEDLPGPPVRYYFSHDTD

[13] = Inhibition of UAE (unknown origin) in presence of ATP; design: species or system Homo sapiens
[14] = target: T3, SUMO-activating enzyme subunit 1 (Homo sapiens, UniProt Q9UBE0); test: Inhibition of SAE (unknown origin) in presence of ATP
T3 sequence (Q9UBE0 whole entry): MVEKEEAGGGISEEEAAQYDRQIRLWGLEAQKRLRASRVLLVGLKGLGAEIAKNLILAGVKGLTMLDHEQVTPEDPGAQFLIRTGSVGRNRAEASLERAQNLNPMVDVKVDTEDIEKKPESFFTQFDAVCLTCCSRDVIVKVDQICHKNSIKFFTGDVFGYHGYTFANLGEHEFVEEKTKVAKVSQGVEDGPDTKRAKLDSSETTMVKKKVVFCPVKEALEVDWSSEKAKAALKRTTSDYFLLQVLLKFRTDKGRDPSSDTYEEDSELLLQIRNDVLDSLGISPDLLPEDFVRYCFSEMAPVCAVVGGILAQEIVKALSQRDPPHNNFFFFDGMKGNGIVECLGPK

[15] = Competitive inhibition of human UAE-catalyzed ATP-PPi exchange reaction expressed in Sf9 insect cells after 60 mins in presence of 10 uM ATP
[16] = Competitive inhibition of human UAE-catalyzed ATP-PPi exchange reaction expressed in Sf9 insect cells after 60 mins in presence of 1 mM ATP
[17] = target: T4, Ubiquitin-like modifier-activating enzyme ATG7 (Homo sapiens, UniProt O95352); test: Inhibition of ATG7 (unknown origin) in presence of ATP
T4 sequence (O95352 whole entry): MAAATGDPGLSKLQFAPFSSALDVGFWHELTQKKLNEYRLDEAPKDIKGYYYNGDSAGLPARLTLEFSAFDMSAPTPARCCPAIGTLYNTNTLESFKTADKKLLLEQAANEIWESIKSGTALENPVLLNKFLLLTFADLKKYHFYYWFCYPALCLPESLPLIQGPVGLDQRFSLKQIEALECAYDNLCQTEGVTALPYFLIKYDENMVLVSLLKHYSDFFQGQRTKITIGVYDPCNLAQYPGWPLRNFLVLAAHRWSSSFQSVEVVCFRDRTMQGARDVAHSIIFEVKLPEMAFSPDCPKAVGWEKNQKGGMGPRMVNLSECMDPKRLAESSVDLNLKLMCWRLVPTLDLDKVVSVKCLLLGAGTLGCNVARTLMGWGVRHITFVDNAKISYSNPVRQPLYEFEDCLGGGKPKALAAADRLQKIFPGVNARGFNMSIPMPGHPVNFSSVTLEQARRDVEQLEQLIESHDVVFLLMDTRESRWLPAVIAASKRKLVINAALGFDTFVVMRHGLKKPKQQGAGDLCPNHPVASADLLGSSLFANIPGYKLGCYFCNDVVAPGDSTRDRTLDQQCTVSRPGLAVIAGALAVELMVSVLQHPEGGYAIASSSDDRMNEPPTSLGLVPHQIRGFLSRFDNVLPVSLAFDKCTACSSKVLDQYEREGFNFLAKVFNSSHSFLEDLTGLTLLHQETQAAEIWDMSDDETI

[18] = Inhibition of UAE (unknown origin)-catalyzed UAE-Ub intermediate formation; design: species or system Homo sapiens
[19] = Inhibition of N-terminal GST-tagged human UAE-catalyzed UAE-Ub thioester intermediate formation expressed in HI5 insect cells after 5 mins by SDS-PAGE analysis
[20] = Inhibition of UAE-catalyzed UAE-Ub thioester intermediate formation in human RPE cells by immunoblotting analysis; format: cell-based

`CCOC(=O)c1ccc(N2NC(=O)/C(=C/c3ccc([N+](=O)[O-])o3)C2=O)cc1` showed an IC50 [1] of less than 10 µM, an IC50 [2] of 6.4 µM and an IC50 [3] of less than 10 µM.

For `O=C1NN(c2ccc(F)c(Cl)c2)C(=O)/C1=C\c1ccc([N+](=O)[O-])o1`, the CC50 (T47D) was 15 µM, the CC50 [4] was 15 µM and the CC50 (DU-145) was 15 µM. The CC50 (HeLa) was 15 µM, the CC50 [5] was 15 µM and the CC50 [6] was no more than 3 µM. It also gave a CC50 (LP-1) of no more than 3 µM, a CC50 (PPC-1) of 15 µM and a CC50 [7] of no more than 3 µM. The CC50 [8] was less than 10 µM, the CC50 (HT-29) was 15 µM and the IC50 [9] was 20 µM. The CC50 (FaDu) was 15 µM.

Compound `NS(=O)(=O)OC[C@H]1O[C@@H](n2cnc3c(N[C@H]4CCc5ccccc54)ncnc32)[C@H](O)[C@@H]1O` has an IC50 [10] of 0.0014 µM, an IC50 [11] of 4 µM and an IC50 [12] of 0.92 µM. The IC50 [13] was 5.2 µM, the IC50 [14] was 6.4 µM and the IC50 [15] was 0.0102 µM. For the same compound, the IC50 [16] was 5 µM and the IC50 [17] was greater than 100 µM.

Work on `CC(C)(O)/C=C/[C@@]12[C@H]3[C@@H](O)[C@@H]4O[C@@H]4[C@]1(O)OC(C)(C)[C@@H]2C=C1C(=O)[C@H]2O[C@H]2[C@H](O)[C@H]13` [PANEPOPHENANTHRIN] yielded an IC50 [18] of 17 µg/mL (≈ 40.4 µM).

For `CCCCCCCCCCNCCSSCc1ccc(Cl)cc1`, the IC50 [19] was 9 µM and the IC50 [2] was 13 µM.

Compound `CCOC(=O)N1CCN(/[N+]([O-])=N/Oc2ccc([N+](=O)[O-])cc2[N+](=O)[O-])CC1` has an IC50 [20] of 2 µM.
